Experimental data as given in patent US20240150841A1, “TAP63 REGULATED ONCOGENIC LONG NON-CODING RNAS” (H. LEE MOFFITT CANCER CENTER AND RESEARCH INSTITUTE, INC., priority 2021, published 2024).
Structures can show the parent of a compound that is named as a salt.

How the values were obtained:
WDR26 (endogenous) = WDR26 (endogenous) (UniProt Q9H7D7)
TROLL-3 = assay: qRT-PCR for TROLL-3 in triple negative breast cancer cells treated with drugs; assay type: cell-based, human; conditions: for expression of TROLL-3 following treatment: CA1D, BT-20, BT-549, MDA-MB-231, for at least 48 hours following treatment; for expression of TROLL-3 by the end of the 72 hour course: TNBC cell lines
Experimental: (§1) Total RNA was prepared using TRIzol reagent (Invitrogen)5. For gene expression analysis, complementary DNA was synthesized from 5 μg of total RNA using the SuperScript II First-Strand Synthesis Kit (Invitrogen) according to the manufacturer's protocol followed by qRT-PCR using the TaqMan® Universal PCR Master Mix (Applied Biosystems). qRT-PCR was performed using a QuantStudio 6 flex PCR machine (Applied Biosystems) and each qRT-PCR was performed in triplicate.
(§2) We wanted to examiner the effects anti-cancer treatments on the level of TROLLs overtime.

TROLL-2 = assay: qRT-PCR for TROLL-2 in triple negative breast cancer cells treated with drugs; assay type: cell-based, human; conditions: for expression of TROLL-2 following treatment: CA1D, BT-20, BT-549, MDA-MB-231, for at least 48 hours following treatment; for expression of TROLL-2 by the end of the 72 hour course: TNBC cell lines
Experimental: as §1, §2

CA1D cells = assay: Annexin V assay (apoptosis / cell death) time course in CA1D cells; assay type: cell-based, human
Experimental: Cells were plated at a density of 1×10^4 cells in 6 replicates in a 96-well plate. Three biological replicates were performed per each assay. To evaluate cell proliferation, the cells were labelled for 3 h with […] EdU (5′-ethynyl-2′-deoxyuridine) and stained using the Click-iT EdU microplate assay (Invitrogen). Apoptosis was monitored by incubating the cells with Annexin V-Alexa Fluor 488 (Essen BioScience) according to the manufacturer's instructions Images were captured and percent of either cell proliferation or apoptosis was quantified using a high-throughput immunofluorescence plate reader and accompanying software (IncuCyte, Essen Bioscience).
To see how effective the administration of an anti-cancer treatment alone or in combination with siRNA targeting TROLL2 and/or TROLL-3 was, CA1D cells were administered treatment and […] of the cells was measured by Annexin V staining. As shown in FIGS. 14A-14F cells with high levels of TROLLs were either limited in response to treatment or resistant.

UniProt Q9H7D7, sequence (Q9H7D7 whole entry): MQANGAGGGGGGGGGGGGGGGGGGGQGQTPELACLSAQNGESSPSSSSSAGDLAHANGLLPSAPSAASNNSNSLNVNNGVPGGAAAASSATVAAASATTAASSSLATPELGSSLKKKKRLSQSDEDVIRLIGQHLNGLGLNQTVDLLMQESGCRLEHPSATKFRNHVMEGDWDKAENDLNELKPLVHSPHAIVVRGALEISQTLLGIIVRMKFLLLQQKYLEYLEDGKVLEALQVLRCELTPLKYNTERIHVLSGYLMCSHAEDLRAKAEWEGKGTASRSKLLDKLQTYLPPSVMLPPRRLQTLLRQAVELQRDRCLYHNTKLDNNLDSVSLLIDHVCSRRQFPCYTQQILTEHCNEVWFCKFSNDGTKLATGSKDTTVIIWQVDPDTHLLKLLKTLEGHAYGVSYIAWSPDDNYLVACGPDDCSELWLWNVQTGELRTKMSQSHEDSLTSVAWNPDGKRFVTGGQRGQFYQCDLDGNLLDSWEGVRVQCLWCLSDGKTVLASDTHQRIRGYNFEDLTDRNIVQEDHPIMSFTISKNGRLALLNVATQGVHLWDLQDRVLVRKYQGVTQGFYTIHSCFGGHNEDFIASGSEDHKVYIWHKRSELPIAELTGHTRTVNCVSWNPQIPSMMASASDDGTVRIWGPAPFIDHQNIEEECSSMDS

| Molecule | AKT phosphorylation levels (pAKT S473, western blot) (WDR26 (endogenous)) | expression of TROLL-3 following treatment (TROLL-3) | expression of TROLL-2 following treatment (TROLL-2) | response to drug in TNBC with high levels of TROLLs (in particular TROLL-2 and TROLL-3) (CA1D cells) | response to drug in TNBC with low levels of TROLLs (in particular TROLL-2 and TROLL-3) (CA1D cells) | expression of TROLL-3 by the end of the 72 hour course (TROLL-3) | expression of TROLL-2 by the end of the 72 hour course (TROLL-2) |
| --- | --- | --- | --- | --- | --- | --- | --- |
| AKT (endogenous) | a decrease in AKT phosphorylation levels |  |  |  |  |  |  |
| CC(=O)O[C@H]1C(=O)[C@@]2(C)[C@H]([C@H](OC(=O)c3ccccc3)[C@]3(O)C[C@H](OC(=O)[C@H](O)[C@@H](NC(=O)c4ccccc4)c4ccccc4)C(C)=C1C3(C)C)[C@]1(OC(C)=O)CO[C@@H]1C[C@@H]2O [paclitaxel] |  | reduced expression | reduced expression | limited response | sensitivity |  |  |
| N.N.O=C([O-])C1(C(=O)[O-])CCC1.[Pt+2] [carboplatin] |  | reduced expression | reduced expression | resistance | partial response | increased expression | increased expression |
| COc1cccc2c1C(=O)c1c(O)c3c(c(O)c1C2=O)C[C@@](O)(C(=O)CO)C[C@@H]3O[C@H]1C[C@H](N)[C@H](O)[C@H](C)O1 [Adriamycin, Doxorubicin Hydrochloride] |  | reduced expression | reduced expression | limited response | sensitivity | increased expression | increased expression |
| O=P1(N(CCCl)CCCl)NCCCO1 (stereo not shown) [cyclophosphamide] |  | reduced expression | reduced expression | resistance | partial response |  |  |
| CCCCCOC(=O)Nc1nc(=O)n([C@@H]2O[C@H](C)[C@@H](O)[C@H]2O)cc1F [capecitabine] |  | reduced expression | reduced expression | resistance | partial response | increased expression | increased expression |
| CC(=O)O[C@@]12CO[C@@H]1C[C@H](O)[C@@]1(C)C(=O)[C@H](O)C3=C(C)[C@@H](OC(=O)[C@H](O)[C@@H](NC(=O)OC(C)(C)C)c4ccccc4)C[C@@](O)([C@@H](OC(=O)c4ccccc4)[C@H]21)C3(C)C [docetaxel] |  | reduced expression | reduced expression | limited response | sensitivity |  |  |
